What was measured:
MATIN [1] = assay: Post-emergence action against MATIN; format: in vivo, Matricaria inodora; conditions: post-emergence, dosage 80 g/ha, visual assessment about 3 weeks after treatment vs untreated controls
Summary of the method: (§1)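 Weeds grown in sandy loam in greenhouse, treated at one-leaf stage (2–3 weeks after sowing) with WP or EC formulations sprayed as aqueous suspension/emulsion at 600 to […] water with 0.2% wetting agent. Visual rating after about 3 weeks versus untreated controls, as % herbicidal action (100% = plants dead, 0% = like control).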

CYPES [2] = assay: Pre-emergence action against CYPES; format: in vivo, Cyperus esculentus; conditions: pre-emergence, dosage 320 g/ha, scored visually after 3 weeks vs untreated controls
Summary of the method: (§2)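 Seeds sown in sandy loam in wood-fiber pots and covered with soil. Greenhouse growth; visual damage scored after 3 weeks versus untreated controls (100% = dead, 0% = like control).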

ECHCG [3] = assay: Pre-emergence action against ECHCG; format: in vivo, Echinochloa crus-galli; conditions: pre-emergence, dosage 320 g/ha, scored visually after 3 weeks vs untreated controls
Summary of the method: as §2

MATIN [4] = assay: Pre-emergence action against MATIN; format: in vivo, Matricaria inodora; conditions: Dosage 320 g/ha, pre-emergence
Summary of the method: as §2

STEME [5] = assay: Pre-emergence action against STEME; format: in vivo, Stellaria media; conditions: Dosage 320 g/ha, pre-emergence
Summary of the method: as §2

AMARE [6] = assay: Pre-emergence action against AMARE; format: in vivo, Amaranthus retroflexus; conditions: pre-emergence, dosage 320 g/ha, scored visually after 3 weeks vs untreated controls
Summary of the method: as §2

VERPE = assay: Pre-emergence action against VERPE; format: in vivo, Veronica persica; conditions: Dosage 320 g/ha, pre-emergence
Summary of the method: as §2

AMARE [7] = assay: Post-emergence action against AMARE; format: in vivo, Amaranthus retroflexus; conditions: post-emergence, dosage 80 g/ha, visual assessment about 3 weeks after treatment vs untreated controls
Summary of the method: as §1

HORMU = assay: Pre-emergence action against HORMU; format: in vivo, Hordeum murinum; conditions: Dosage 320 g/ha
Source text: (§3) Seeds of monocotyledonous and dicotyledonous weed plants and crop plants are laid out in sandy loam soil in wood-fiber pots and covered with soil. The compounds of the invention, formulated in the form of wettable powders (WP) or as emulsion concentrates (EC), are then applied to the surface of the covering soil in the form of an aqueous suspension or emulsion at a water application rate equating to […], with addition of 0.2% wetting agent. After the treatment, the pots are placed in a greenhouse and kept under good growth conditions for the trial plants. The damage to the test plants is scored visually after a test period of 3 weeks by comparison with untreated controls (herbicidal activity in percent (%): 100% activity=the plants have died, 0% activity=like control plants).

AVEFA [8] = assay: Post-emergence action against AVEFA; format: in vivo, Avena fatua; conditions: post-emergence, dosage 80 g/ha, visual assessment about 3 weeks after treatment vs untreated controls
Summary of the method: as §1

LOLRI = assay: Pre-emergence action against LOLRI; format: in vivo, Lolium rigidum; conditions: dosage 320 g/ha, scored visually after 3 weeks vs untreated controls
Source text: as §3

SETVI [9] = assay: Post-emergence action against SETVI; format: in vivo, Setaria viridis; conditions: post-emergence, dosage 80 g/ha, visual assessment about 3 weeks after treatment vs untreated controls
Summary of the method: as §1

ALOMY = assay: Pre-emergence action against ALOMY; format: in vivo, Alopecurus myosuroides; conditions: dosage 320 g/ha; pre-emergence; scored visually after 3 weeks vs untreated controls; 100% = plants have died, 0% = like control plants
Summary of the method: as §2

SETVI [10] = assay: Pre-emergence action against SETVI; format: in vivo, Setaria viridis; conditions: pre-emergence, dosage 320 g/ha, scored visually after 3 weeks vs untreated controls
Summary of the method: as §2

PHBPU [11] = assay: Post-emergence action against PHBPU; format: in vivo, Pharbitis purpurea; conditions: post-emergence, dosage 80 g/ha
Summary of the method: as §1

ECHCG [12] = assay: Post-emergence action against ECHCG; format: in vivo, Echinochloa crus-galli; conditions: post-emergence, dosage 80 g/ha, visual assessment about 3 weeks after treatment vs untreated controls
Summary of the method: as §1

VIOTR [13] = assay: Pre-emergence action against VIOTR; format: in vivo, Viola tricolor; conditions: Dosage 320 g/ha, pre-emergence
Summary of the method: as §2

ABUTH [14] = assay: Pre-emergence action against ABUTH; format: in vivo, Abutilon theophrasti; conditions: pre-emergence, dosage 320 g/ha, scored visually after 3 weeks vs untreated controls
Summary of the method: as §2

STEME [15] = assay: Post-emergence action against STEME; format: in vivo, Stellaria media; conditions: post-emergence, dosage 80 g/ha
Summary of the method: as §1

ABUTH [16] = assay: Post-emergence action against ABUTH; format: in vivo, Abutilon theophrasti; conditions: post-emergence, dosage 80 g/ha, visual assessment about 3 weeks after treatment vs untreated controls
Summary of the method: as §1

AVEFA [17] = assay: Pre-emergence action against AVEFA; format: in vivo, Avena fatua; conditions: dosage 320 g/ha, scored visually after 3 weeks vs untreated controls
Summary of the method: as §2

CYPES [18] = assay: Post-emergence action against CYPES; format: in vivo, Cyperus esculentus; conditions: post-emergence, dosage 80 g/ha, visual assessment about 3 weeks after treatment vs untreated controls
Summary of the method: as §1

POLCO [19] = assay: Pre-emergence action against POLCO; format: in vivo, Polygonum convolvulus; conditions: Dosage 320 g/ha, pre-emergence
Summary of the method: as §2

PHBPU [20] = assay: Pre-emergence action against PHBPU; format: in vivo, Pharbitis purpurea; conditions: Dosage 320 g/ha, pre-emergence
Summary of the method: as §2

VIOTR [21] = assay: Post-emergence action against VIOTR; format: in vivo, Viola tricolor; conditions: post-emergence, dosage 80 g/ha
Summary of the method: as §1

POLCO [22] = assay: Post-emergence action against POLCO; format: in vivo, Polygonum convolvulus; conditions: post-emergence, dosage 80 g/ha
Summary of the method: as §1

SMILES | Post-emergence action against MATIN (herbicidal action in percent) (MATIN [1]) [%] | Pre-emergence action against CYPES (herbicidal activity) (CYPES [2]) [%] | Pre-emergence action against ECHCG (herbicidal activity) (ECHCG [3]) [%] | Pre-emergence action against MATIN (MATIN [4]) [%] | Pre-emergence action against STEME (STEME [5]) [%] | Pre-emergence action against AMARE (herbicidal activity) (AMARE [6]) [%] | Pre-emergence action against VERPE (VERPE) [%] | Post-emergence action against AMARE (herbicidal action in percent) (AMARE [7]) [%] | Pre-emergence action against HORMU (HORMU) [%] | Pre-emergence action against LOLRI (herbicidal activity) (LOLRI) [%] | Post-emergence action against SETVI (herbicidal action in percent) (SETVI [9]) [%] | Pre-emergence action against ALOMY (herbicidal activity in percent) (ALOMY) [%] | SETVI (Table B8, pre-emergence herbicidal activity) (SETVI [10]) [%] | Post-emergence action against PHBPU (PHBPU [11]) | Post-emergence action against ECHCG (herbicidal action in percent) (ECHCG [12]) [%] | Pre-emergence action against VIOTR (VIOTR [13]) [%] | Pre-emergence action against ABUTH (herbicidal activity) (ABUTH [14]) [%] | Post-emergence action against STEME (STEME [15]) | Post-emergence action against ABUTH (herbicidal action in percent) (ABUTH [16]) [%] | Pre-emergence action against AVEFA (herbicidal activity) (AVEFA [17]) [%] | also measured
Cn1nnnc1NC(=O)c1ccc(C(F)(F)F)c(C(=O)C2(C)CC2)c1Cl [1-147] | 90 | 100 | 100 | 100 | 100 | 100 | 100 | 100 | 90 | 90 | 100 | 100 | 100 | 80 | 100 | 100 | 100 | 80 | 100 | 90 | Post-emergence action against AVEFA (herbicidal action in percent) (AVEFA [8]): 100%
CCCn1nnnc1NC(=O)c1ccc(C(F)F)c(C(=O)C2CC2)c1Cl [3-168] | 100 |  | 100 | 100 | 100 | 100 | 100 | 100 | 90 | 100 | 100 | 100 | 100 | 100 | 100 | 100 | 100 | 100 | 100 | 100 | Post-emergence action against CYPES (herbicidal action in percent) (CYPES [18]): 90%; Pre-emergence action against POLCO (POLCO [19]): 80%; Post-emergence action against AVEFA (herbicidal action in percent) (AVEFA [8]): 90%; Pre-emergence action against PHBPU (PHBPU [20]): 100%; Post-emergence action against VIOTR (VIOTR [21]): 100
CCn1nnnc1NC(=O)c1ccc(C(F)F)c(C(C)=O)c1Cl [2-164] | 100 | 100 | 100 | 100 | 100 | 100 | 100 | 100 | 80 | 80 | 100 | 100 | 100 | 100 | 100 | 100 | 100 | 100 | 100 | 90 | Post-emergence action against CYPES (herbicidal action in percent) (CYPES [18]): 90%; Post-emergence action against POLCO (POLCO [22]): 80; Pre-emergence action against POLCO (POLCO [19]): 100%; Pre-emergence action against PHBPU (PHBPU [20]): 90%; Post-emergence action against VIOTR (VIOTR [21]): 100

Source: patent US11051515B2, “3-acyl-benzamides and their use as herbicides” (Bayer Aktiengesellschaft, priority 2017, dated 2021)
